In PubChem BioAssay (NCI):
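In this assay, cells in 96-well plates receive the compound at five concentrations for 48 hours. Endpoints are linearly interpolated between the surrounding concentrations. GI50 is the concentration that inhibits growth by half. TGI: total growth inhibition.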

How the values were obtained:
Test in all cases: NCI anticancer screen, dose series, 48 h
786-0 renal = test system: 786-0 renal
A498 renal = test system: A498 renal
A549 NSCLC = test system: A549 NSCLC
ACHN renal = test system: ACHN renal
BT-549 breast = test system: BT-549 breast
CAKI-1 renal = test system: CAKI-1 renal
CCRF-CEM leukemia = test system: CCRF-CEM leukemia
COLO 205 colon = test system: COLO 205 colon
DU-145 prostate = test system: DU-145 prostate
EKVX NSCLC = test system: EKVX NSCLC
HCC-2998 colon = test system: HCC-2998 colon
HCT-116 colon = test system: HCT-116 colon
HCT-15 colon = test system: HCT-15 colon
HL-60(TB) leukemia = test system: HL-60(TB) leukemia
HOP-62 NSCLC = test system: HOP-62 NSCLC
HOP-92 NSCLC = test system: HOP-92 NSCLC
HS 578T breast = test system: HS 578T breast
HT29 colon = test system: HT29 colon
IGROV1 ovarian = test system: IGROV1 ovarian
K-562 leukemia = test system: K-562 leukemia
KM12 colon = test system: KM12 colon
LOX IMVI melanoma = test system: LOX IMVI melanoma
M14 melanoma = test system: M14 melanoma
MALME-3M melanoma = test system: MALME-3M melanoma
MCF7 breast = test system: MCF7 breast
MDA-MB-231 breast = test system: MDA-MB-231 breast
MDA-MB-435 = test system: MDA-MB-435
MOLT-4 leukemia = test system: MOLT-4 leukemia
NCI-H226 lung = test system: NCI-H226 lung
NCI-H23 lung = test system: NCI-H23 lung
NCI-H460 lung = test system: NCI-H460 lung
NCI-H522 lung = test system: NCI-H522 lung
NCI/ADR-RES ovarian = test system: NCI/ADR-RES ovarian
OVCAR-3 ovarian = test system: OVCAR-3 ovarian
OVCAR-4 ovarian = test system: OVCAR-4 ovarian
OVCAR-5 ovarian = test system: OVCAR-5 ovarian
OVCAR-8 ovarian = test system: OVCAR-8 ovarian
PC-3 prostate = test system: PC-3 prostate
RPMI-8226 leukemia = test system: RPMI-8226 leukemia
RXF 393 renal = test system: RXF 393 renal
SF-268 CNS = test system: SF-268 CNS
SF-295 CNS = test system: SF-295 CNS
SF-539 CNS = test system: SF-539 CNS
SK-MEL-2 melanoma = test system: SK-MEL-2 melanoma
SK-MEL-28 melanoma = test system: SK-MEL-28 melanoma
SK-MEL-5 melanoma = test system: SK-MEL-5 melanoma
SK-OV-3 ovarian = test system: SK-OV-3 ovarian
SN12C renal = test system: SN12C renal
SNB-19 CNS = test system: SNB-19 CNS
SNB-75 CNS = test system: SNB-75 CNS
SR leukemia = test system: SR leukemia
SW-620 colon = test system: SW-620 colon
T-47D breast = test system: T-47D breast
TK-10 renal = test system: TK-10 renal
U251 CNS = test system: U251 CNS
UACC-257 melanoma = test system: UACC-257 melanoma
UACC-62 melanoma = test system: UACC-62 melanoma
UO-31 renal = test system: UO-31 renal

SMILES: CC[C@H](NC(=O)[C@H](CS(=O)(=O)CC1CC1)N[C@@H](c1ccc(F)cc1)C(F)(F)F)C(=O)C(=O)NC1CC1
- GI50 (786-0 renal): > 100 µM
- TGI (786-0 renal): > 100 µM
- GI50 (A498 renal): > 100 µM
- TGI (A498 renal): > 100 µM
- GI50 (A549 NSCLC): > 100 µM
- TGI (A549 NSCLC): > 100 µM
- GI50 (ACHN renal): > 100 µM
- TGI (ACHN renal): > 100 µM
- GI50 (BT-549 breast): > 100 µM
- TGI (BT-549 breast): > 100 µM
- GI50 (CAKI-1 renal): > 100 µM
- TGI (CAKI-1 renal): > 100 µM
- GI50 (CCRF-CEM leukemia): > 100 µM
- TGI (CCRF-CEM leukemia): > 100 µM
- GI50 (COLO 205 colon): > 100 µM
- TGI (COLO 205 colon): > 100 µM
- GI50 (DU-145 prostate): > 100 µM
- TGI (DU-145 prostate): > 100 µM
- GI50 (EKVX NSCLC): 90.3 µM
- TGI (EKVX NSCLC): > 100 µM
- GI50 (HCC-2998 colon): > 100 µM
- TGI (HCC-2998 colon): > 100 µM
- GI50 (HCT-116 colon): > 100 µM
- TGI (HCT-116 colon): > 100 µM
- GI50 (HCT-15 colon): > 100 µM
- TGI (HCT-15 colon): > 100 µM
- GI50 (HL-60(TB) leukemia): > 100 µM
- TGI (HL-60(TB) leukemia): > 100 µM
- GI50 (HOP-62 NSCLC): > 100 µM
- TGI (HOP-62 NSCLC): > 100 µM
- GI50 (HOP-92 NSCLC): 98.7 µM
- TGI (HOP-92 NSCLC): > 100 µM
- GI50 (HS 578T breast): > 100 µM
- TGI (HS 578T breast): > 100 µM
- GI50 (HT29 colon): > 100 µM
- TGI (HT29 colon): > 100 µM
- GI50 (IGROV1 ovarian): > 100 µM
- TGI (IGROV1 ovarian): > 100 µM
- GI50 (K-562 leukemia): > 100 µM
- TGI (K-562 leukemia): > 100 µM
- GI50 (KM12 colon): > 100 µM
- TGI (KM12 colon): > 100 µM
- GI50 (LOX IMVI melanoma): > 100 µM
- TGI (LOX IMVI melanoma): > 100 µM
- GI50 (M14 melanoma): > 100 µM
- TGI (M14 melanoma): > 100 µM
- GI50 (MALME-3M melanoma): > 100 µM
- TGI (MALME-3M melanoma): > 100 µM
- GI50 (MCF7 breast): 86.8 µM
- TGI (MCF7 breast): > 100 µM
- GI50 (MDA-MB-231 breast): 93.1 µM
- TGI (MDA-MB-231 breast): > 100 µM
- GI50 (MDA-MB-435): > 100 µM
- TGI (MDA-MB-435): > 100 µM
- GI50 (MOLT-4 leukemia): 32.8 µM
- TGI (MOLT-4 leukemia): > 100 µM
- GI50 (NCI-H226 lung): > 100 µM
- TGI (NCI-H226 lung): > 100 µM
- GI50 (NCI-H23 lung): > 100 µM
- TGI (NCI-H23 lung): > 100 µM
- GI50 (NCI-H460 lung): > 100 µM
- TGI (NCI-H460 lung): > 100 µM
- GI50 (NCI-H522 lung): > 100 µM
- TGI (NCI-H522 lung): > 100 µM
- GI50 (NCI/ADR-RES ovarian): > 100 µM
- TGI (NCI/ADR-RES ovarian): > 100 µM
- GI50 (OVCAR-3 ovarian): > 100 µM
- TGI (OVCAR-3 ovarian): > 100 µM
- GI50 (OVCAR-4 ovarian): 82.9 µM
- TGI (OVCAR-4 ovarian): > 100 µM
- GI50 (OVCAR-5 ovarian): > 100 µM
- TGI (OVCAR-5 ovarian): > 100 µM
- GI50 (OVCAR-8 ovarian): > 100 µM
- TGI (OVCAR-8 ovarian): > 100 µM
- GI50 (PC-3 prostate): > 100 µM
- TGI (PC-3 prostate): > 100 µM
- GI50 (RPMI-8226 leukemia): > 100 µM
- TGI (RPMI-8226 leukemia): > 100 µM
- GI50 (RXF 393 renal): > 100 µM
- TGI (RXF 393 renal): > 100 µM
- GI50 (SF-268 CNS): > 100 µM
- TGI (SF-268 CNS): > 100 µM
- GI50 (SF-295 CNS): > 100 µM
- TGI (SF-295 CNS): > 100 µM
- GI50 (SF-539 CNS): > 100 µM
- TGI (SF-539 CNS): > 100 µM
- GI50 (SK-MEL-2 melanoma): > 100 µM
- TGI (SK-MEL-2 melanoma): > 100 µM
- GI50 (SK-MEL-28 melanoma): > 100 µM
- TGI (SK-MEL-28 melanoma): > 100 µM
- GI50 (SK-MEL-5 melanoma): > 100 µM
- TGI (SK-MEL-5 melanoma): > 100 µM
- GI50 (SK-OV-3 ovarian): > 100 µM
- TGI (SK-OV-3 ovarian): > 100 µM
- GI50 (SN12C renal): > 100 µM
- TGI (SN12C renal): > 100 µM
- GI50 (SNB-19 CNS): > 100 µM
- TGI (SNB-19 CNS): > 100 µM
- GI50 (SNB-75 CNS): > 100 µM
- TGI (SNB-75 CNS): > 100 µM
- GI50 (SR leukemia): 98.4 µM
- TGI (SR leukemia): > 100 µM
- GI50 (SW-620 colon): > 100 µM
- TGI (SW-620 colon): > 100 µM
- GI50 (T-47D breast): > 100 µM
- TGI (T-47D breast): > 100 µM
- GI50 (TK-10 renal): > 100 µM
- TGI (TK-10 renal): > 100 µM
- GI50 (U251 CNS): > 100 µM
- TGI (U251 CNS): > 100 µM
- GI50 (UACC-257 melanoma): > 100 µM
- TGI (UACC-257 melanoma): > 100 µM
- GI50 (UACC-62 melanoma): > 100 µM
- TGI (UACC-62 melanoma): > 100 µM
- GI50 (UO-31 renal): > 100 µM
- TGI (UO-31 renal): > 100 µM
